Some test systems named below: SK-OV-3; Hs-578T; NCI-H226; HOP-62; CAKI-1; MCF7; A498; M14; HCT-15; MDA-N; OVCAR-8; SW-620; UO-31; CCRF-CEM; A549; DU-145; IGROV-1; RXF 393; TK-10; HOP-92.
Holding throughout (assay): growth of human tumour cells (NCI), 48 h

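How tested: cells in 96-well plates exposed to compound for 48 hours at five concentrations. The concentration for 50% growth inhibition is given as GI50.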 Calls of active or inactive are those of the source. Rule as the data show it: active = GI50 up to about 1.1 µM and inactive = higher. Residues, ends and D or L forms follow the SMILES beside them. *: point of attachment. Cbz = O=C(OCc1ccccc1)*; Boc = CC(C)(C)OC(=O)*; OSu = O=C1CCC(=O)N1O*; Bn = c1ccc(C*)cc1

For `COc1ccc(/C=N/n2c(-c3ccccc3)n[nH]c2=O)cc1`, the GI50 is > 100 µM (inactive) in the test on SK-OV-3; 50.1 µM (inactive) in the test on Hs-578T; > 100 µM (inactive) in the test on NCI-H226; > 100 µM (inactive) in the test with HOP-62; > 100 µM (inactive) in the test with CAKI-1; > 100 µM (inactive) with MCF7. For the same molecule, the GI50 is 25.3 µM (inactive) with A498; > 100 µM (inactive) in the test on M14; more than 100 µM in the test on HCT-15; > 100 µM (inactive) in the test with MDA-N; > 100 µM (inactive) in the test with OVCAR-8; > 100 µM (inactive) with SW-620. Besides, the GI50 in the test on UO-31 is 95.3 µM (inactive); in the test on CCRF-CEM, > 100 µM (inactive); in the test with A549, 95.1 µM (inactive); in the test on DU-145, > 100 µM (inactive).
As to `C[C@H]1S[C@H](c2c(F)cccc2F)n2c1nc1ccccc12`, the GI50 in the test with SK-OV-3 was 38.4 µM (inactive); in the test on Hs-578T it was 88.7 µM (inactive); in the test on NCI-H226, > 100 µM (inactive); in the test with HOP-62, > 100 µM (inactive); in the test with CAKI-1, 74 µM (inactive); with IGROV-1 it was > 100 µM (inactive). The GI50 with MCF7 is 33.8 µM (inactive); in the test with M14, 38.5 µM (inactive); in the test on HCT-15, 47 µM; in the test on RXF 393, 28.6 µM (inactive); with MDA-N, 59.2 µM (inactive); with OVCAR-8 it was 69 µM (inactive). Further, the GI50 in the test with SW-620 is 88.1 µM (inactive); with UO-31 it was 34.4 µM (inactive); in the test on CCRF-CEM it was 40.5 µM (inactive); in the test on TK-10 it was > 100 µM (inactive); in the test with A549, 47.1 µM (inactive); in the test on DU-145 it was > 100 µM (inactive).
As for `O=C(CNS(=O)(=O)Cc1ccccc1)NNc1ccccc1`, the GI50 with SK-OV-3 is > 100 µM (inactive); in the test with Hs-578T it was > 100 µM (inactive); with NCI-H226 it was > 100 µM (inactive); in the test on HOP-62, > 100 µM (inactive); with CAKI-1, 5.6 µM (inactive); with IGROV-1, 72.8 µM (inactive). The GI50 is > 74.8 µM (inactive) in the test on MCF7; > 63.7 µM (inactive) with M14; more than 100 µM in the test on HCT-15; > 100 µM (inactive) with RXF 393; 15.7 µM (inactive) with MDA-N; > 100 µM (inactive) in the test on OVCAR-8. The GI50 was 8.05 µM (inactive) in the test on SW-620; > 100 µM (inactive) in the test with UO-31; > 100 µM (inactive) with HOP-92; > 100 µM (inactive) in the test with CCRF-CEM; > 100 µM (inactive) in the test on TK-10; > 100 µM (inactive) in the test with A549. The GI50 in the test with DU-145 is > 100 µM (inactive).
For `Cc1csc(NNC(N)=O)n1`, the GI50 in the test with SK-OV-3, with Hs-578T, in the test with NCI-H226, in the test on HOP-62, with CAKI-1 and with IGROV-1 was > 100 µM (inactive) in each case. Further, the GI50 is > 100 µM (inactive) with MCF7; > 100 µM (inactive) with M14; more than 100 µM in the test on HCT-15; > 100 µM (inactive) with RXF 393; > 100 µM (inactive) in the test with MDA-N; > 100 µM (inactive) in the test with OVCAR-8. Besides, the GI50 with SW-620, in the test on UO-31, in the test with HOP-92, in the test on CCRF-CEM, in the test with TK-10 and with A549 was > 100 µM (inactive) each time. Also, the GI50 in the test with DU-145 is > 100 µM (inactive).
Regarding `COc1ccc(/N=N/c2c(-c3c(OC)cc4occc4c3OC)[nH]c(=O)c(C#N)c2C)cc1`, the GI50 with SK-OV-3 is > 100 µM (inactive); in the test on Hs-578T it was > 100 µM (inactive); with NCI-H226, > 100 µM (inactive); with HOP-62, > 100 µM (inactive); with CAKI-1 it was > 100 µM (inactive); in the test with IGROV-1, 76.2 µM (inactive). In addition, the GI50 was > 100 µM (inactive) with MCF7; > 100 µM (inactive) in the test with M14; more than 100 µM in the test on HCT-15; > 100 µM (inactive) in the test on RXF 393; > 100 µM (inactive) with MDA-N; > 100 µM (inactive) in the test with OVCAR-8. For the same molecule, the GI50 in the test on SW-620, with UO-31, in the test with HOP-92, in the test on CCRF-CEM, with TK-10 and in the test on A549 was > 100 µM (inactive) throughout. Further, in the test on DU-145, the GI50 was > 100 µM (inactive).
Regarding `O=C1CSC2=NC3=C(CSC/C3=C\c3ccccc3)C(c3ccccc3)N12` (centres undefined), the GI50 in the test with SK-OV-3 is > 100 µM (inactive); with Hs-578T it was > 100 µM (inactive); with NCI-H226, > 100 µM (inactive); in the test on HOP-62, > 100 µM (inactive); in the test with IGROV-1, > 100 µM (inactive); with MCF7, 33.3 µM (inactive). For the same molecule, the GI50 is 41.5 µM (inactive) in the test on M14; more than 100 µM with HCT-15; 32.6 µM (inactive) in the test with MDA-N; 86.5 µM (inactive) with OVCAR-8; 84.9 µM (inactive) in the test with SW-620; 24.9 µM (inactive) with UO-31. Besides, the GI50 in the test with HOP-92 was 46 µM (inactive); with CCRF-CEM, 33.8 µM (inactive); in the test on TK-10, > 100 µM (inactive); in the test on A549, 50.6 µM (inactive); in the test on DU-145 it was > 100 µM (inactive).
Turning to `N#Cc1nc(CCc2nc(C#N)c(N)o2)oc1N`, the GI50 in the test with SK-OV-3, in the test on Hs-578T, in the test on NCI-H226, in the test on HOP-62, with CAKI-1 and with IGROV-1 was > 10 µM (inactive) throughout. In addition, the GI50 is > 10 µM (inactive) in the test with MCF7; > 10 µM (inactive) with M14; more than 10 µM with HCT-15; > 10 µM (inactive) in the test on RXF 393; > 10 µM (inactive) in the test with MDA-N; > 10 µM (inactive) in the test on OVCAR-8. Moreover, the GI50 in the test with SW-620, in the test on UO-31, with HOP-92, in the test with CCRF-CEM, in the test on TK-10 and in the test with A549 was > 10 µM (inactive) each time. The GI50 with DU-145 was > 10 µM (inactive).
For the molecule `CC(C)(C)OC(=O)NC(Cc1ccc(OCc2ccccc2)cc1)C(=O)NC(CCCCNC(=O)OCc1ccccc1)C(=O)NC(CCCCNC(=O)OCc1ccccc1)C(=O)ON1C(=O)CCC1=O` (centres undefined) (Boc-Tyr(Bn)-Lys(Cbz)-Lys(Cbz)-OSu; configuration not given here), the GI50 with SK-OV-3 was > 100 µM (inactive); in the test on Hs-578T it was 16.4 µM (inactive); in the test with HOP-62 it was > 100 µM (inactive); in the test with CAKI-1, 64.4 µM (inactive); in the test with IGROV-1, 31.5 µM (inactive); in the test on MCF7, 18.9 µM (inactive). The GI50 is > 100 µM (inactive) with M14; more than 100 µM with HCT-15; 39.4 µM (inactive) in the test on RXF 393; 16.6 µM (inactive) with MDA-N; 29.1 µM (inactive) in the test on OVCAR-8; > 100 µM (inactive) in the test on UO-31. The GI50 in the test with HOP-92 is 51.2 µM (inactive); in the test on CCRF-CEM it was 66.2 µM (inactive); with TK-10, > 100 µM (inactive); in the test on A549, > 100 µM (inactive); in the test on DU-145, 88.5 µM (inactive).

These data come from ChEMBL document CHEMBL1201862, “PubChem BioAssay data set” (2004).
